Laboratory results as given in the Biogen ADME set (Fang et al. 2023).
Values after ≈ are worked out from the molar mass of the structure shown.

Settings: for aqueous solubility: pH 6.8

| Structure (SMILES) | MDR1-MDCK efflux ratio | intrinsic clearance, human liver microsomes | intrinsic clearance, rat liver microsomes | aqueous solubility | fraction unbound, human plasma | fraction unbound, rat plasma |
| --- | --- | --- | --- | --- | --- | --- |
| Cc1nc(NCc2scnc2C)n(C)n1 | 4.21 | ≤ 4.74 mL/min/kg | ≤ 10.7 mL/min/kg | 27.7 µg/mL (≈ 124 µM) |  |  |
| CC(C)n1ccc(C(=O)N2CCS(=O)(=O)C(C)(C)C2)n1 | 2.42 | ≤ 4.74 mL/min/kg | 33.7 mL/min/kg | 46.4 µg/mL (≈ 155 µM) |  |  |
| N#Cc1cccc(-c2ccc(=O)n3c2[C@@H]2C[C@@H](CN(Cc4cccs4)C2)C3)c1 | 7.04 | 396 mL/min/kg | 2000 mL/min/kg | 48.9 µg/mL (≈ 126 µM) |  |  |
| O=C(O)/C=C/c1ccc(Cn2ccnc2)cc1 | 3 | ≤ 4.74 mL/min/kg | ≤ 10.7 mL/min/kg | 50.6 µg/mL (≈ 222 µM) |  |  |
| CN1CCc2nc(C(=O)N[C@H]3C[C@@H](C(=O)N(C)C)CC[C@@H]3NC(=O)C(=O)Nc3ccc(Cl)cn3)sc2C1 | 178 | ≤ 4.74 mL/min/kg | ≤ 10.7 mL/min/kg |  |  |  |
| Cc1ncn(Cc2noc(-c3ccccc3O)n2)c1C | 0.643 | 19.9 mL/min/kg | 483 mL/min/kg |  |  |  |
| N#Cc1ccc(C(=O)Nn2cnnc2)cc1 |  | ≤ 4.74 mL/min/kg | ≤ 10.7 mL/min/kg | 18 µg/mL (≈ 84.3 µM) |  |  |
| c1ccc2c(c1)CN(c1cnc3ccccc3n1)CCN2 | 0.54 | 93.9 mL/min/kg | 628 mL/min/kg | 25.1 µg/mL (≈ 90.8 µM) |  |  |
| COc1ccc(N)c(OCc2ccccc2)c1 | 0.705 | 103 mL/min/kg | 707 mL/min/kg |  |  |  |
| O=c1c(-n2ccnn2)c[nH]n1-c1cc(N2CCOCC2)ncn1 | 1.76 | ≤ 4.74 mL/min/kg | 45.8 mL/min/kg | 30.7 µg/mL (≈ 97.7 µM) |  |  |
| Cc1cc(OCc2cc(C#N)ccc2F)ccc1N |  |  |  | 25.4 µg/mL (≈ 99.2 µM) |  |  |
| CNCc1cc(N(C)C)nc(C2CCCN2C(=O)COC)n1 (stereo not drawn) | 5.05 | ≤ 4.74 mL/min/kg | ≤ 10.7 mL/min/kg |  |  |  |
| COc1cc(CN2C[C@H]3CCc4c(nc(C)[nH]c4=O)[C@H]3C2)cc(OC)c1OC | 47.5 | ≤ 4.74 mL/min/kg | ≤ 10.7 mL/min/kg |  |  |  |
| O=C(CN1CCSC1=O)Nc1ccccc1F | 0.739 | ≤ 4.74 mL/min/kg | ≤ 10.7 mL/min/kg | 31.6 µg/mL (≈ 124 µM) |  |  |
| COc1ccc(S(=O)(=O)N2CCC(N3CCC(C)CC3)CC2)cc1 |  |  |  | 56.4 µg/mL (≈ 160 µM) |  |  |
| Cc1nc(C#N)c(C#N)n1Cc1csc(-c2cccs2)n1 |  | 88.8 mL/min/kg | 1710 mL/min/kg | 32.2 µg/mL (≈ 104 µM) |  |  |
| Cc1ccccc1-n1c(CC2CCN(C(=O)C3CC3)CC2)n[nH]c1=O | 117 | ≤ 4.74 mL/min/kg | 26.8 mL/min/kg | 48 µg/mL (≈ 141 µM) |  |  |
| COc1ccnc(N2CC(O)(C3CC3)C2)n1 | 0.711 | ≤ 4.74 mL/min/kg | 25.8 mL/min/kg |  |  |  |

| Structure (SMILES) | MDR1-MDCK efflux ratio | intrinsic clearance, human liver microsomes | intrinsic clearance, rat liver microsomes | aqueous solubility | fraction unbound, human plasma | fraction unbound, rat plasma |
| --- | --- | --- | --- | --- | --- | --- |
| CC(C)(O)CCn1cc2cc(NC(=O)c3cccc(C(F)(F)F)n3)c(C(C)(C)O)cc2n1 | 10.2 | 9.92 mL/min/kg | 42.6 mL/min/kg |  | 0.104 | 0.124 |
| Cc1cc(Nc2cc(N)ncn2)c(=O)n2c1C(=O)NC21CCCCC1 | 25.5 | ≤ 4.74 mL/min/kg | 24.8 mL/min/kg |  |  |  |
| CC(C)(C)NC(=O)NCCn1nc2c(cc1=O)CCCC2 | 67 | 12.1 mL/min/kg | 105 mL/min/kg | 47.5 µg/mL (≈ 162 µM) |  |  |
| CONC(=O)c1c2c(nc3ccccc13)CCC2 |  | ≤ 4.74 mL/min/kg | ≤ 10.7 mL/min/kg |  |  |  |
| CCC(C)(C)N1CCN(C(=O)Nc2cnn(CC(C)C)c2C(F)F)CC1 | 4.08 | ≤ 4.74 mL/min/kg | 159 mL/min/kg |  |  |  |
| Cc1ccn(CCC(=O)N2CCc3nc4sccc4c(=O)n3CC2)n1 |  | 17 mL/min/kg | 242 mL/min/kg |  |  |  |
| CCCn1cnnc1CN(C)Cc1cc(C(C)C)on1 | 15.3 | ≤ 4.74 mL/min/kg | 534 mL/min/kg |  |  |  |
| Cn1cc(CN2CCCC(c3ccnc(Nc4cnccn4)c3)C2)cn1 (stereo not drawn) | 6.36 | 7.74 mL/min/kg | 179 mL/min/kg |  |  |  |
| Cc1csc(NC(=O)c2ccc(-c3ccncc3)cc2)n1 | 0.179 | 35.7 mL/min/kg | 305 mL/min/kg | 2.34 µg/mL (≈ 7.92 µM) |  |  |
| CN(c1ccc(NC(=O)Nc2ccc(OC(F)(F)F)cc2)cc1)c1ccnc(Nc2cccc(S(N)(=O)=O)c2)n1 | 8.5 | ≤ 4.74 mL/min/kg | ≤ 10.7 mL/min/kg | 1.95 µg/mL (≈ 3.4 µM) |  |  |
| CCn1cnnc1CN(C)C1CCN(c2ccccc2F)CC1 | 2.68 | ≤ 4.74 mL/min/kg | 340 mL/min/kg |  |  |  |
| COC(=O)c1cc(F)c(C)c(NC(=O)CCCc2ccccn2)c1 | 0.785 | 795 mL/min/kg | 1680 mL/min/kg | 43 µg/mL (≈ 130 µM) |  |  |
| Cc1nc(CCNc2cnccc2C#N)cs1 |  | 55.6 mL/min/kg | 391 mL/min/kg |  |  |  |
| CCc1nc(CC)n(Cc2nc(C)cs2)n1 | 0.797 | ≤ 4.74 mL/min/kg | 39.8 mL/min/kg | 35.9 µg/mL (≈ 152 µM) |  |  |
| Cc1noc(C(C)C)c1C(=O)Nc1ccccn1 | 0.524 | 28.4 mL/min/kg | 510 mL/min/kg | 58.3 µg/mL (≈ 238 µM) |  |  |
| CN1C(=O)[C@H](Cc2ccccc2)N[C@@H]1C(C)(C)C | 0.771 | 53.9 mL/min/kg | 747 mL/min/kg | 30.3 µg/mL (≈ 123 µM) |  |  |
| Cc1nc(C)c(C(=O)Nc2ccc3ncccc3c2)o1 |  | 13.4 mL/min/kg | 34.8 mL/min/kg |  |  |  |
| CN(C)CCN(Cc1ccccc1)Cc1ccccc1O | 0.84 | 330 mL/min/kg | 1380 mL/min/kg | 41.9 µg/mL (≈ 147 µM) |  |  |

Now from value to compound:

| MDR1-MDCK efflux ratio | intrinsic clearance, human liver microsomes | intrinsic clearance, rat liver microsomes | aqueous solubility | fraction unbound, human plasma | fraction unbound, rat plasma | Structure (SMILES) |
| --- | --- | --- | --- | --- | --- | --- |
| 21.9 |  |  | 0.3 µg/mL (≈ 0.615 µM) |  |  | CC(=O)c1cnc2ccc(-c3cc(Cl)c(O)c(Cl)c3)nc2c1N[C@H]1CC[C@H](CN(C)C)CC1 |
| 0.316 | 120 mL/min/kg | 2530 mL/min/kg | 11.4 µg/mL (≈ 45.5 µM) |  |  | Cc1ccc2nc(-c3ccc(N(C)C)cc3)[nH]c2c1 |
|  | ≤ 4.74 mL/min/kg | 253 mL/min/kg |  |  |  | CCCn1cc(CNC(=O)CN2CCCC2)cn1 |
|  | 9.07 mL/min/kg | 49.8 mL/min/kg | 30.2 µg/mL (≈ 51.9 µM) | 0.0501 | 0.0486 | NCCN1CCN(C/C=C/C(=O)N2CCC[C@@H](n3nc(-c4ccc(Oc5ccccc5)cc4)c4c(N)ncnc43)C2)CC1 |
|  | 54 mL/min/kg | 1790 mL/min/kg |  |  |  | CN(C)c1ccnc(NCc2ccc(F)cc2)n1 |
| 16.6 | 45.4 mL/min/kg | 307 mL/min/kg | 3.3 µg/mL (≈ 8.47 µM) |  |  | Cc1ccc(NC(=O)c2cccc(N(C)C)c2)cc1NC(=O)c1ccc(O)cc1 |
| 0.695 |  |  | 0.37 µg/mL (≈ 1.07 µM) |  |  | CSCC(=O)Nc1nc(-c2ccc(C3CCCCC3)cc2)cs1 |
| 0.314 | 20.7 mL/min/kg | 76.3 mL/min/kg | 4.11 µg/mL (≈ 12.8 µM) |  |  | O=C(Nc1ccc(F)cc1)c1cc(C2CC2)nn1-c1ccccc1 |
| 28.9 | 21.3 mL/min/kg | 187 mL/min/kg | 64.6 µg/mL (≈ 142 µM) | 0.0863 | 0.0467 | CC#CC(=O)N1CC[C@@H](n2c(=O)n(-c3ccc(Oc4ccccc4)cc3)c3c(N)ncnc32)C1 |
| 4.42 | ≤ 4.74 mL/min/kg | 23.3 mL/min/kg | 61.7 µg/mL (≈ 154 µM) |  |  | O=C(c1ccc(F)c(F)c1)N1CCN(C(=O)c2nc(Cl)ccc2Cl)CC1 |
| 61.1 | 65.7 mL/min/kg | 308 mL/min/kg | 3.11 µg/mL (≈ 7.37 µM) |  |  | Cn1cc(-c2ccc(-c3cncc(Cl)c3N3CCC4(CCNC4=O)CC3)cc2)cn1 |
| 0.662 | 756 mL/min/kg | 1890 mL/min/kg | 6.56 µg/mL (≈ 20.2 µM) |  |  | CCOC(=O)c1cc2ccccc2n1CC(=O)c1ccc(F)cc1 |
| 26.7 | 5.43 mL/min/kg | 98.6 mL/min/kg |  | 0.439 | 0.429 | Cc1cc(Nc2cnccn2)cc(C2CCCN(CC(=O)N3CCCC3)C2)n1 (stereo not drawn) |
|  | 82.8 mL/min/kg | 894 mL/min/kg | 3.4 µg/mL (≈ 10.2 µM) |  |  | O=C(Nc1cccc(Cl)c1F)c1cccc(N2CCCC2=O)c1 |
| 0.979 | 63.8 mL/min/kg | 1090 mL/min/kg | 74.3 µg/mL (≈ 220 µM) |  |  | COc1ccc(CCNCc2ccc(-c3ccccc3)o2)cc1OC |
| 0.671 | 148 mL/min/kg | 1100 mL/min/kg | 19.4 µg/mL (≈ 49.1 µM) |  |  | O=C(CN1CCCN(c2ccc(C(F)(F)F)cn2)CC1)Nc1ccccc1F |
|  | 21.1 mL/min/kg |  |  | 0.0383 | 0.0592 | O=C(Nc1cccc2c(=O)cc(-c3nnn[nH]3)oc12)c1ccc(OCCCCc2ccccc2)cc1 |
|  |  |  | 2.34 µg/mL (≈ 6.49 µM) |  |  | COc1ccc(C2=N/C(=C/c3cc4ccccc4n3C(C)=O)C(=O)O2)cc1 |
| 1.11 | 5.03 mL/min/kg | 50.9 mL/min/kg | 59.7 µg/mL (≈ 161 µM) |  |  | COc1ccc(N2CCCN(CC3CCN(C(=O)C4CC4)CC3)CC2)cc1 |
| 0.577 | 40.5 mL/min/kg | 484 mL/min/kg |  |  |  | CCc1c(C(=O)NCCc2ccc(N3CCCCC3)cc2)[nH]c2ccc(Cl)cc12 |
